{
  "source": "patent US5747493A",
  "about": "“Dopamine re-uptake inhibitor” (Pola Chemical Industries, Inc., priority 1993, dated 1998)",
  "key": {"[1]": {"tested_on": "[^3 H]-DA re-uptake", "experiment": "inhibition of [^3 H]-DA re-uptake in corpus striatum homogenate", "type": "biochemical, Sprague-Dawley rats", "conditions": "for amount of DA re-uptake: 2 min", "method": "Investigation as to inhibition of [^3 H]-DA re-uptake\nCorpus striatum samples of Sprague-Dawley rats (SD rats) were used to investigate the inhibition of [^3 H]-DA re-uptake.\nMore specifically, after an SD rat (aged 8 weeks, male) was decapitated, its corpus striatum was taken out while keeping on ice. A Krebs-Henseleit buffer in an amount ten times of the corpus striatum was added thereto to homogenize the resultant mixture by means of a Teflon homogenizer, thereby obtaining a homogenate. To this homogenate, were added nialamide as a monoamine oxidase inhibitor, ascorbic acid as an antioxidant and a test agent to preincubate the resulting mixture at 37° C. for 5 minutes. […] After the reaction mixture was filtered by means of a cell harvester in which a filter had been set, the filter was washed twice with physiological saline. The washed filter was placed in a vial, and 10 ml of Aquazol-2 were added to leave the filter to stand overnight. Thereafter, the radioactivity of the sample was measured by a liquid scintillation counter.\nCompound 1 according to the present invention was used as a test agent. The test agent was prepared into a 10^-2 M solution in dimethyl sulfoxide, and the solution was diluted with a Krebs-Henseleit buffer before its use. With the concentrations of the test substances, 11 points were selected within a range of from 10^-10 M to 10^-5 M to plot the concentration versus the amount of DA re-uptake. From this plot, an IC50 value was determined."}, "[2]": {"tested_on": "Wistar rats (male)", "experiment": "quantity of spontaneous movement", "type": "in vivo", "conditions": "intraperitoneal, 3 hours; for Number of times of rising: control 2; for Number of times of traversing: control 20", "description": "Determination of quantity of spontaneous movement\nWistar rats (male) aged 7 weeks were used to confirm the effect of Compound 1 on spontaneous movement. […] The number of times of traversing sections of a floor and the number of times of rising were used as indices of the quantity of movement. The test agent was used in doses of from 0.1 mmol/kg down to 0.01 mmol/kg. Besides, physiological saline alone was used as a control."}},
  "note": "Counter-ions that a name gives are not always drawn.",
  "data": [
    {"smiles": "OC(CNc1ccccc1)CN1CCN(CCCC(c2ccc(F)cc2)c2ccc(F)cc2)CC1", "note": "(stereo not drawn) [Compound 1, 1-[4,4-Bis(4-fluorophenyl)-butyl]-4-(2-hydroxy-3-phenyl-aminopropyl)piperazinedihydrochloride]", "values": [
      {"measurement": "IC50", "setting": "[1]; SD rat corpus striatum homogenate, 37° C., 2 minutes reaction", "result": 6.79, "unit": "nM"},
      {"measurement": "amount of DA re-uptake", "setting": "[1]; concentration of test substance -log (mol) 6, 1 µM", "result": 0, "unit": "%"},
      {"measurement": "amount of DA re-uptake", "setting": "[1]; concentration of test substance -log (mol) 6.5, 0.316 µM", "result": 0, "unit": "%"},
      {"measurement": "amount of DA re-uptake", "setting": "[1]; concentration of test substance -log (mol) 7, 0.1 µM", "result": 2, "unit": "%"},
      {"measurement": "amount of DA re-uptake", "setting": "[1]; concentration of test substance -log (mol) 8, 0.01 µM", "result": 38, "unit": "%"},
      {"measurement": "amount of DA re-uptake", "setting": "[1]; concentration of test substance -log (mol) 9, 0.001 µM", "result": 80, "unit": "%"},
      {"measurement": "amount of DA re-uptake", "setting": "[1]; concentration of test substance -log (mol) 10, 0.0001 µM", "result": 92, "unit": "%"},
      {"measurement": "inhibition of DA re-uptake (in words)", "setting": "[1]; conclusion from IC50 and Table 3", "result": "potent activities of inhibiting DA re-uptake"},
      {"measurement": "Number of times of rising", "setting": "[2]; 0.01 mmol/kg", "result": 69, "unit": "times"},
      {"measurement": "Number of times of traversing", "setting": "[2]; 0.01 mmol/kg", "result": 253, "unit": "times"},
      {"measurement": "Number of times of rising", "setting": "[2]; 0.03 mmol/kg", "result": 156, "unit": "times"},
      {"measurement": "Number of times of traversing", "setting": "[2]; 0.03 mmol/kg", "result": 267, "unit": "times"},
      {"measurement": "Number of times of rising", "setting": "[2]; 0.1 mmol/kg", "result": 121, "unit": "times"},
      {"measurement": "Number of times of traversing", "setting": "[2]; 0.1 mmol/kg", "result": 287, "unit": "times"},
      {"measurement": "quantity of spontaneous movement (in words)", "setting": "[2]; 0.01 to 0.1 mmol/kg, hydrochloride", "result": "enhances the quantity of the spontaneous movement to a marked extent"}
    ]}
  ]
}
